Data published in patent US20230114627A1, “COMPOSITION COMPRISING A METAL ASCORBO-CAMPHORATE COMPOUND AND METHOD FOR PREVENTION AND/OR TREATMENT OF PAPILLOMAVIRUS INFECTIONS” (MGB PHARMA Inc., priority 2020, published 2023).

Tested on: HEC-1A cells
Assay: Cytokine/chemokine MultiPlex assay (BioPlex 200) of HEC-1A secretion
Format: cell-based
Conditions: 24 hours
Source text: In the model as provided in this example, a method to assess the pro-inflammatory character of antivirals intended to be applied as mucosal topicals was used.
Epithelial cells are capable of secreting a set of molecules called cytokines and chemokines, which are responsible for the recruitment and activation of immune cells at the site of secretion. This process can be deleterious in the context of sexual transmission of HIV-1 because the recruited cells are the preferred targets of the virus. […] A microbicide candidate should therefore not promote inflammation by activating the production of this type of molecule by the cells directly in contact with the substance (epithelial cells). These secretions can be deleterious in the context of sexual transmission of HIV-1 or HPV and other papillomaviruses because the recruited cells are the preferred targets of the virus. A microbicide candidate must thus not promote inflammation by activating the production of these types of molecules by the cells in contact with the substance (epithelial cells).
After 24 hours of incubation, a panel of 48 inflammation-related cytokines/chemokines is assayed by MultiPlex (BioPlex 200 BioRad) in the basal medium.

## zinc tetra-ascorbo-camphorate [C14]
0 μM
  CTACK: 4.29 pg/mL
  Eotaxin: 0.87 pg/mL
  FGF: 1.515 pg/mL
  G-CSF: 1.885 pg/mL
  GM-CSF: 7.005 pg/mL
  GROα: 2.75 pg/mL
  HGF: 3.63 pg/mL
  IFN-α2: 4.08 pg/mL
  IFN-γ: 94.255 pg/mL
  IL-1rα: 18.105 pg/mL
  IL-1α: 0 pg/mL
  IL-1β: 0.335 pg/mL
  IL-2: 0.25 pg/mL
  IL-2rα: 4.06 pg/mL
  IL-3: 6.785 pg/mL
  IL-4: 0.16 pg/mL
  IL-5: 0 pg/mL
  IL-6: 0.435 pg/mL
  IL-7: 3.95 pg/mL
  IL-8: 971.01 pg/mL
  IL-9: 25.865 pg/mL
  IL-10: 3.085 pg/mL
  IL-12: 98.495 pg/mL
  IL-12ρ40: 0 pg/mL
  IL-13: 3.34 pg/mL
  IL-15: 0 pg/mL
  IL-16: 0 pg/mL
  IL-17: 0 pg/mL
  IL-18: 0 pg/mL
  IP-10: 6.19 pg/mL
  LIF: 0 pg/mL
  M-CSF: 3.725 pg/mL
  MCP-1: 7.26 pg/mL
  MCP-3: 0 pg/mL
  MIF: 6.92 pg/mL
  MIG: 3.09 pg/mL
  MIP-1α: 2.25 pg/mL
  MIP-1β: 1.32 pg/mL
  PDGF-β: 1.235 pg/mL
  RANTES: 12.86 pg/mL
  SCF: 0 pg/mL
  SCGF-β: 242.36 pg/mL
  SDF-1α: 13.03 pg/mL
  TNF-α: 4.9 pg/mL
  TNF-β: 0 pg/mL
  TRAIL: 3.43 pg/mL
  VEGF: 1384.84 pg/mL
  β-NGF: 1.04 pg/mL
1 μM to 500 μM
  effect on production of the 48 cytokines/chemokines: did not affect the production
5 μM
  CTACK: 4.29 pg/mL
  Eotaxin: 0 pg/mL
  FGF: 1.415 pg/mL
  G-CSF: 1.99 pg/mL
  GM-CSF: 6.24 pg/mL
  GROα: 0 pg/mL
  HGF: 5.43 pg/mL
  IFN-α2: 3.58 pg/mL
  IFN-γ: 95.43 pg/mL
  IL-1rα: 10.215 pg/mL
  IL-1α: 0 pg/mL
  IL-1β: 0.31 pg/mL
  IL-2: 0.105 pg/mL
  IL-2rα: 4.29 pg/mL
  IL-3: 6.785 pg/mL
  IL-4: 0.05 pg/mL
  IL-5: 0 pg/mL
  IL-6: 0.34 pg/mL
  IL-7: 3.38 pg/mL
  IL-8: 941.46 pg/mL
  IL-9: 25.535 pg/mL
  IL-10: 3.395 pg/mL
  IL-12: 98.855 pg/mL
  IL-12ρ40: 0 pg/mL
  IL-13: 4.8 pg/mL
  IL-15: 0 pg/mL
  IL-16: 0 pg/mL
  IL-17: 0 pg/mL
  IL-18: 0 pg/mL
  IP-10: 4.855 pg/mL
  LIF: 0 pg/mL
  M-CSF: 4.7 pg/mL
  MCP-1: 5.105 pg/mL
  MCP-3: 0 pg/mL
  MIF: 2.735 pg/mL
  MIG: 3.76 pg/mL
  MIP-1α: 2.105 pg/mL
  MIP-1β: 1.09 pg/mL
  PDGF-β: 0.865 pg/mL
  RANTES: 12.27 pg/mL
  SCF: 0 pg/mL
  SCGF-β: 258.645 pg/mL
  SDF-1α: 13.03 pg/mL
  TNF-α: 5.5 pg/mL
  TNF-β: 0 pg/mL
  TRAIL: 4.21 pg/mL
  VEGF: 1240.71 pg/mL
  β-NGF: 0.95 pg/mL
10 μM
  CTACK: 3.45 pg/mL
  Eotaxin: 0 pg/mL
  FGF: 1.53 pg/mL
  G-CSF: 1.99 pg/mL
  GM-CSF: 6.65 pg/mL
  GROα: 0 pg/mL
  HGF: 5.43 pg/mL
  IFN-α2: 4.08 pg/mL
  IFN-γ: 76.375 pg/mL
  IL-1rα: 14.085 pg/mL
  IL-1α: 0 pg/mL
  IL-1β: 0.33 pg/mL
  IL-2: 0.305 pg/mL
  IL-2rα: 3.825 pg/mL
  IL-3: 6.14 pg/mL
  IL-4: 0.235 pg/mL
  IL-5: 0 pg/mL
  IL-6: 0.575 pg/mL
  IL-7: 3.665 pg/mL
  IL-8: 1115.205 pg/mL
  IL-9: 26.025 pg/mL
  IL-10: 3.17 pg/mL
  IL-12: 103.16 pg/mL
  IL-12ρ40: 0 pg/mL
  IL-13: 4.145 pg/mL
  IL-15: 0 pg/mL
  IL-16: 0 pg/mL
  IL-17: 0 pg/mL
  IL-18: 0 pg/mL
  IP-10: 7.165 pg/mL
  LIF: 0 pg/mL
  M-CSF: 4.805 pg/mL
  MCP-1: 7.55 pg/mL
  MCP-3: 0 pg/mL
  MIF: 1.06 pg/mL
  MIG: 3.76 pg/mL
  MIP-1α: 2.065 pg/mL
  MIP-1β: 1.555 pg/mL
  PDGF-β: 2.805 pg/mL
  RANTES: 12.995 pg/mL
  SCF: 0 pg/mL
  SCGF-β: 255.82 pg/mL
  SDF-1α: 11.41 pg/mL
  TNF-α: 6.985 pg/mL
  TNF-β: 0 pg/mL
  TRAIL: 5.025 pg/mL
  VEGF: 1530.905 pg/mL
  β-NGF: 0.86 pg/mL
100 μM
  CTACK: 2.585 pg/mL
  Eotaxin: 0 pg/mL
  FGF: 1.635 pg/mL
  G-CSF: 1.885 pg/mL
  GM-CSF: 9.51 pg/mL
  GROα: 0 pg/mL
  HGF: 4.58 pg/mL
  IFN-α2: 4.08 pg/mL
  IFN-γ: 89.85 pg/mL
  IL-1rα: 10.3 pg/mL
  IL-1α: 0 pg/mL
  IL-1β: 0.34 pg/mL
  IL-2: 0.02 pg/mL
  IL-2rα: 3.245 pg/mL
  IL-3: 5.495 pg/mL
  IL-4: 0.33 pg/mL
  IL-5: 0 pg/mL
  IL-6: 0.255 pg/mL
  IL-7: 4.495 pg/mL
  IL-8: 783.255 pg/mL
  IL-9: 22.305 pg/mL
  IL-10: 3.505 pg/mL
  IL-12: 99.355 pg/mL
  IL-12ρ40: 0 pg/mL
  IL-13: 3.735 pg/mL
  IL-15: 0 pg/mL
  IL-16: 0 pg/mL
  IL-17: 0 pg/mL
  IL-18: 0 pg/mL
  IP-10: 0 pg/mL
  LIF: 0 pg/mL
  M-CSF: 4.725 pg/mL
  MCP-1: 5.3 pg/mL
  MCP-3: 0 pg/mL
  MIF: 1.06 pg/mL
  MIG: 2.75 pg/mL
  MIP-1α: 1.77 pg/mL
  MIP-1β: 1.26 pg/mL
  PDGF-β: 3.58 pg/mL
  RANTES: 12.205 pg/mL
  SCF: 0 pg/mL
  SCGF-β: 228.825 pg/mL
  SDF-1α: 11.41 pg/mL
  TNF-α: 5.465 pg/mL
  TNF-β: 0 pg/mL
  TRAIL: 5.025 pg/mL
  VEGF: 1469.495 pg/mL
  β-NGF: 0.95 pg/mL
500 μM
  CTACK: 3.425 pg/mL
  Eotaxin: 3.21 pg/mL
  FGF: 1.925 pg/mL
  G-CSF: 2.3 pg/mL
  GM-CSF: 7.53 pg/mL
  GROα: 2.75 pg/mL
  HGF: 6.22 pg/mL
  IFN-α2: 3.58 pg/mL
  IFN-γ: 98.775 pg/mL
  IL-1rα: 14.09 pg/mL
  IL-1α: 0 pg/mL
  IL-1β: 0.415 pg/mL
  IL-2: 0.28 pg/mL
  IL-2rα: 4.39 pg/mL
  IL-3: 6.785 pg/mL
  IL-4: 0.295 pg/mL
  IL-5: 0 pg/mL
  IL-6: 0.79 pg/mL
  IL-7: 4.66 pg/mL
  IL-8: 1219.13 pg/mL
  IL-9: 30.4 pg/mL
  IL-10: 4.165 pg/mL
  IL-12: 121.285 pg/mL
  IL-12ρ40: 0 pg/mL
  IL-13: 4.555 pg/mL
  IL-15: 0 pg/mL
  IL-16: 0 pg/mL
  IL-17: 0 pg/mL
  IL-18: 0 pg/mL
  IP-10: 10.765 pg/mL
  LIF: 0 pg/mL
  M-CSF: 3.995 pg/mL
  MCP-1: 5.165 pg/mL
  MCP-3: 0 pg/mL
  MIF: 5.26 pg/mL
  MIG: 3.09 pg/mL
  MIP-1α: 2.04 pg/mL
  MIP-1β: 1.655 pg/mL
  PDGF-β: 6.19 pg/mL
  RANTES: 13.835 pg/mL
  SCF: 0 pg/mL
  SCGF-β: 128.865 pg/mL
  SDF-1α: 11.41 pg/mL
  TNF-α: 10.49 pg/mL
  TNF-β: 0 pg/mL
  TRAIL: 3.43 pg/mL
  VEGF: 1814.38 pg/mL
  β-NGF: 0.995 pg/mL
